Experimental data published in patent US8629283B2, “Compounds that modulate negative-sense, single-stranded RNA virus replication and uses thereof” (Icahn School of Medicine at Mount Sinai, priority 2008, dated 2014).
Where two headings read alike, the source gives them in different places. Marks after values point to notes of the source that are not given here.

Columns and labels:
[1] = tested on: Newcastle disease virus (NDV/B1); assay type: cell-based
influenza A/WSN/33 virus [2] = assay type: cell-based
A549 cells = details: for concentrations found non-toxic / not decreasing cell viability, up to: A549 cells, 24 h, MTS assay
influenza A/WSN/33 virus [3] = tested on: influenza A/WSN/33 virus
[4] = tested on: vesicular stomatitis virus (VSV); assay type: cell-based
influenza A virus (FluA) [5] = test: in vitro; details: human
influenza A virus (FluA) [6] = tested on: influenza A virus (FluA)
influenza A virus (FluA) [7] = test: microbe, parasite or virus in culture; details: A549, read-out: IC50 (A549)
in vitro = details: human
[8] = tested on: influenza B/Yamagata/88 virus; assay type: cell-based
influenza A/WSN/33 virus [9] = test: microbe, parasite or virus in culture; details: A549, 24 h
[10] = read-out: IC50 (compound concentration of 50% inhibition of viral replication)

Row | Compound | HTS result (luciferase signal of influenza mini-genome reporter) (influenza A/WSN/33 virus [2]) | selectivity ratio (influenza A virus (FluA) [5]) | Inhibition of FluA (Table 5) (influenza A virus (FluA) [6]) | CC10 (A549), concentration of 10% cytotoxicity (A549 cells; human) | IC50 (influenza A virus (FluA) [7]) | CC50 (in vitro) | also measured
1 | C[C@@H]1O[C@@H](O[C@H]2C[C@@H](O)[C@]3(CO)[C@H]4[C@H](O)C[C@]5(C)[C@@H](C6=CC(=O)OC6)CC[C@]5(O)[C@@H]4CC[C@]3(O)C2)[C@H](O)[C@H](O)[C@H]1O [ouabain] | potential influenza virus inhibitors |  |  |  |  |  | inhibition of NDV replication [1]: significantly inhibited; CC50 (A549 cells; human): 0.047 µM; concentration that maintained at least an 80% cell viability (CC20) (A549 cells; human): 0.02 µM; decrease of viral titer compared to untreated control (influenza A/WSN/33 virus [3]): 99.1%; inhibition of VSV replication [4]: significantly inhibited
2 | Cc1[nH]c2ccc(-c3nnc(SCC(=O)N4CCOCC4)o3)cc2c1C [A3-5, 2-(5-(2,3-dimethyl-1H-indol-5-yl)-1,3,4-oxadiazol-2-ylthio)-1-morpholinoethanone] |  | 514 | ~97%** | 10.2 µM | 0.5 µM | 257 µM | 
3 | C[C@H]1O[C@@H](O[C@H]2[C@@H](O)C[C@H](O[C@H]3[C@@H](O)C[C@H](O[C@H]4CC[C@@]5(C)[C@H](CC[C@@H]6[C@@H]5C[C@@H](O)[C@]5(C)[C@@H](C7=CC(=O)OC7)CC[C@]65O)C4)O[C@@H]3C)O[C@@H]2C)C[C@H](O)[C@@H]1O [digoxin] | potential influenza virus inhibitors |  |  |  |  |  | 
4 | CCN(CC)C(=O)CSc1nnc(-c2ccc3[nH]c(C)c(C)c3c2)o1 [A3-2, 2-(5-(2,3-dimethyl-1H-indol-5-yl)-1,3,4-oxadiazol-2-ylthio)-N,N-diethylacetamide] |  | > 165 | ~97%** | 29 µM | 1.2 µM | 198 µM | 
5 | Cc1[nH]c2ccc(-c3nnc(SCC(=O)N4CCCCCC4)o3)cc2c1C [A3-6, 1-(azepan-1-yl)-2-(5-(2,3-dimethyl-1H-indol-5-yl)-1,3,4-oxadiazol-2-ylthio)ethanone] |  | 180 | ~87.5%** | 18.2 µM | 0.98 µM | 179 µM | 
6 | O=C(CSc1nnc(-c2cc3ccccc3[nH]2)o1)N1CCCC1 [A3-7] |  |  | ~29%** | 15.2 µM |  | 134 µM | 
7 | CCN(CC)S(=O)(=O)c1ccc(-c2nnc(SCC(=O)N3CCCC3)o2)cc1 [A3-1] |  |  | ~29%** | 17.3 µM |  | 316 µM | 
8 | Cc1[nH]c2ccc(-c3nnc(SCC(=O)N4CCc5ccccc54)o3)cc2c1C [A3-3, 2-(5-(2,3-dimethyl-1H-indol-5-yl)-1,3,4-oxadiazol-2-ylthio)-1-(indolin-1-yl)ethanone] |  | 8 | ~50%** | 8.5 µM | 8.5 µM | 65 µM | 
9 | O=C(CSc1nnc(-c2cc3ccccc3o2)o1)N1CCCC1 [A3-9] |  |  | ~29%** | 10.9 µM |  | 197 µM | 
10 | CN(c1ccc(O)cc1)c1nc(-c2ccc(Cl)cc2)cs1 [A35-4, 4-[[4-(4-chlorophenyl)-1,3-thiazol-2-yl](methyl)amino]phenol] |  | 5 | ~50%** | 6 µM | 6 µM | 30 µM | 
11 | CCCCCCCCCCCCCC(=O)O[C@@H]1[C@@H](C)[C@@]2(O)[C@@H](C=C(CO)C[C@]3(O)C(=O)C(C)=C[C@@H]23)[C@@H]2C(C)(C)[C@]12OC(C)=O [PMA, phorbol 12-myristate 13-acetate] | not originally recognized in the screen as an enhancer |  |  |  |  |  | increase of viral titer compared to untreated cells (influenza A/WSN/33 virus [3]): 12 fold
12 | O=C(CSc1nnc(-c2cccnc2)o1)N1CCCC1 [A3-11] |  |  | none** | 32.6 µM |  | 249 µM | 
13 | N#Cc1cc2c(OCC(O)CN3CCN(C(c4ccccc4)c4ccccc4)CC3)cccc2[nH]1 (stereo not drawn) [SDZ-201106] | potential influenza virus inhibitors |  |  |  |  |  | reduction in viral growth/titer compared to untreated control [8]: 72%; concentrations found non-toxic / not decreasing cell viability, up to (A549 cells): up to 12.5 μM; SI [CC50/IC50] selective index (influenza A/WSN/33 virus [3]): 7; reduction in viral titer compared to untreated control (influenza A/WSN/33 virus [3]): 85%; IC50 (influenza A/WSN/33 virus [3]; [10]): 4.1 µM
14 | COc1ccc(-c2nnc(SCC(=O)N3CCCC3)o2)cc1 [A3-8] |  |  | none** | 11.8 µM |  | 250 µM | 
15 | lanatoside C | potential influenza virus inhibitors |  |  |  |  |  | inhibition of NDV replication [1]: significantly inhibited; CC50 (A549 cells): 0.21 µM; concentration that maintained at least an 80% cell viability (CC20) (A549 cells): 0.078 µM; decrease of viral titer compared to untreated control (influenza A/WSN/33 virus [3]): 95.9%; inhibition of VSV replication [4]: significantly inhibited
16 | N/C(=N\C(=O)c1nc(Cl)c(N)nc1N)NCc1ccc(Cl)c(Cl)c1 [3′,4′-dichlorobenzamil] |  |  |  |  |  |  | efficiency of growth enhancement relative to 2′,4′-dichlorobenzamil (influenza A/WSN/33 virus [3]): 10 times less efficient; influenza virus growth versus untreated control (influenza A/WSN/33 virus [3]): boost influenza virus replication
17 | O=C(CSc1nnc(-c2ccncc2)o1)N1CCCC1 [A3-12] |  |  | ~29%** | 11.5 µM |  | 186 µM | 
18 | CC(=O)c1c(O)c(C)c(O)c(Cc2c(O)c3c(c(C(=O)/C=C/c4ccccc4)c2O)OC(C)(C)C=C3)c1O [rottlerin] | potential influenza virus inhibitors |  |  |  |  |  | reduction in viral titer compared to untreated control [8]: 80%; concentrations found non-toxic / not decreasing cell viability, up to (A549 cells): up to 1.28 μM; SI [CC50/IC50] selective index (influenza A/WSN/33 virus [3]): 39; reduction in viral titer compared to untreated control (influenza A/WSN/33 virus [3]): 93%; IC50 (influenza A/WSN/33 virus [9]; [10]): 0.46 µM; IC50 (influenza A/WSN/33 virus [9]; read-out: IC50 (half maximal inhibitory concentration)): 0.465 µM
19 | CN(Cc1ccccc1)c1nc(-c2ccc([N+](=O)[O-])cc2)cs1 [A35-1, N-methyl-4-(4-nitrophenyl)-N-(phenylmethyl)-2-thiazolamine] |  | 62 | ~75%** | 10.8 µM | 3.24 µM | 201 µM | 
20 | C[C@]12CC[C@H]3[C@@H](CC[C@]4(O)C[C@@H](O)CC[C@]34C=O)[C@@]1(O)CC[C@@H]2C1=CC(=O)OC1 [strophanthidin] | potential influenza virus inhibitors |  |  |  |  |  | 
21 | CN(c1nc(-c2ccccc2)cs1)C1CCS(=O)(=O)C1 (stereo not drawn) [A35-2] |  |  | none** | 12.2 µM |  | 148 µM | 
22 | Cc1[nH]c2ccc(-c3nnc(SCC(=O)N(C(C)C)C(C)C)o3)cc2c1C [A3-4, 2-(5-(2,3-dimethyl-1H-indol-5-yl)-1,3,4-oxadiazol-2-ylthio)-N,N-diisopropylacetamide] |  | 11 | ~87.5%** | 10.7 µM | 1.65 µM | 17.7 µM | 
23 | Nc1nc(-c2ccc(Cl)cc2)cs1 [A35-3] |  |  | none** | 11.4 µM |  | 165 µM | 
